Several values for one entry are separate records, joined by “and”; a condition that tells them apart may be missing. Equal entries are not always repeated. Square brackets hold non-standard residues; d marks the D form. Peptide text beside a SMILES is read from it. Orn = NCCC[C@H](N)C(=O)O; βAla = NCCC(=O)O
Test system: KSHV lytic gene expression in TREx-K-Rta BCBL-1 cells
Experiment: KSHV genome-wide qRT-PCR array
Format: cell-based
Settings: D
Protocol: Because VGN50 is derived from the KSHV transactivator sequence, we next examined if VGN50 can inhibit KSHV lytic replication by competitively blocking the coactivator binding to K-Rta. To study this, we used the TREx-K-Rta BCBL-1 cell line, in which we can trigger the expression of exogenous Flag-tagged K-Rta in a doxycycline (Dox) inducible manner. TREx-K-Rta BCBL-1 cells were treated with […] VGN50 or mutant peptide, with or without Dox induction. We used approximately one-half of the IC50 concentration of VGN50 to treat the TREx-K-Rta BCBL-1 cells in order to avoid cell toxicity effects that would non-specifically decrease viral gene expression. KSHV gene expression was profiled with a KSHV genome-wide PCR array, using ribosomal rRNA for normalization and as an internal control. Fold activation relative to the uninduced Mut-P-treated sample (not induced: Dox -) was determined and a heatmap for KSHV lytic gene expression was generated (Fig. 3a). […] Immunoblotting was used to confirm the induction of lytic replication by Dox based on exogenous K-Rta protein (Flag-K-Rta) and the expression of two other KSHV lytic proteins (ORF57 and K-bZIP) along with actin and KSHV LANA protein as controls for equal loading and similar viral copy numbers in samples, respectively (Fig. 3b).
Fig. 3 Effects of VGN50 on KSHV gene transcription and VGN50 binding with SWI/SNF components. a KSHV qRT-PCR array analysis was used to study effects of VGN50 on KSHV gene transcription in a genome-wide manner. Uninduced (−; no doxycycline added) or dox-induced (+; 1 μg/ml) cells were treated with VGN50 or the mutant peptide (Mut-P) at a concentration of 24 μM. Samples were collected at 24 h post-treatment. Expression in uninduced cells was set as 1 for each viral gene and expression shown as fold activation relative to no-Dox samples. Selected cellular genes were also included in the PCR array for comparison. 18S ribosomal RNA was used as an internal control. b KSHV protein expression. Immunoblotting was performed to confirm both endogenous and exogenous K-Rta expression before (not induced) and after induction by Dox treatment (Dox-induced). Latent KSHV protein LANA and actin were used as controls for KSHV copy number (LANA) and loading (actin), respectively. Protein samples were collected 48-h post Dox incubation. c KSHV reactivation by VGN50 incubation. BCBL-1 and BC-1 cell lines were treated with VGN50 (16 μM concentration) and total RNA harvested at 24 h post treatment. KSHV PAN RNA expression was examined by qRT-PCR and relative expression over 18S rRNA is shown. Data are presented as mean ± SD (n = 3). d Purification of recombinant SWI/SNF components. SDS-PAGE analysis of five SWI/SNF components individually prepared from baculovirus-infected Sf9 cells. e A schematic illustration of ELISA assay to evaluate VGN50 and SWI/SNF interaction. f Analysis of VGN50 binding to SWI/SNF components by ELISA. Increasing concentrations of biotin-conjugated VGN50 or Mut-P were incubated in duplicate in an ELISA plate coated with each SWI/SNF component. Peptide binding measured as OD values at 450 nm are shown. Mean OD values were compared between the VGN50 and Mut-P in each concentration using unpaired t-test. **p < 0.01, *p < 0.05, NS no significance. Data are presented as mean ± SD with duplicated samples and repeated three times with different purified protein preps.

[1] = values are 2^-ddCT (fold vs MT ND)
[2] = values are 2^-ddCT (fold vs MT ND), listed as MT

`CC(C)C[C@H](NC(=O)CCNC(=O)[C@H](CCCNC(=N)N)NC(=O)[C@H](CCCNC(=N)N)NC(=O)[C@H](CCCNC(=N)N)NC(=O)[C@H](CCCN)NC(=O)[C@H](CCCNC(=N)N)NC(=O)[C@H](CCCNC(=N)N)NC(=O)[C@H](CCCCN)NC(=O)[C@H](CCCCN)NC(=O)[C@H](N)CCCNC(=N)N)C(=O)N[C@@H](CO)C(=O)N[C@@H](CO)C(=O)N[C@@H](C)C(=O)N[C@@H](C)C(=O)N[C@@H](C)C(=O)NCC(=O)N[C@@H](CC(C)C)C(=O)N[C@@H](Cc1ccc(O)cc1)C(=O)N[C@@H](CCC(N)=O)C(=O)N[C@@H](CC(C)C)C(=O)N[C@@H](CC(=O)O)C(=O)N[C@H](C(=O)O)[C@@H](C)O` [Mt-P] (H-[dR]KKRR[Orn]RRR[βAla]LSSAAAGLYQLDT-OH; N-terminus and C-terminus assumed) was tested, and the “IL- 6 ddCT (vs 18s and MT ND)” value was -2.234, the “IL- 10 ddCT (vs 18s and MT ND)” value was 0.213 and the “ORF21 fold vs MT ND (headed ddCT)” value was 10.438. For the same compound, the “ORF 50 k-kta fold vs MT ND (headed ddCT)” value was 158.652, the “k 2 fold vs MT ND (headed ddCT)” value was 197.507 and the “K 9 fold vs MT ND (headed ddCT)” value (listed as MT) was 11.999 and 11.9991. For the same compound, the “K 10 fold vs MT ND (headed ddCT)” value (listed as MT) was 11.665 and 11.6651, the “ORF2 fold vs MT ND (headed ddCT)” value (listed as MT) was 35.093 and 35.0927 and the “ORF4 fold vs MT ND (headed ddCT)” value (listed as MT) was 46.543 and 46.5425. The “ORF6 fold vs MT ND (headed ddCT)” value (listed as MT) was 13.632 and 13.6318, the “ORF7 fold vs MT ND (headed ddCT)” value (listed as MT) was 12.162 and 12.1623 and the “ORF8 fold vs MT ND (headed ddCT)” value (listed as MT) was 10.223 and 10.2233. For the same compound, the “ORF9 fold vs MT ND (headed ddCT)” value (listed as MT) was 6.076, the “ORF11 fold vs MT ND (headed ddCT)” value (listed as MT) was 18.177 and 18.1766 and the “ORF16 fold vs MT ND (headed ddCT)” value (listed as MT) was 8.699 and 8.6991. The “ORF17 fold vs MT ND (headed ddCT)” value (listed as MT) was 6.815, the “ORF18 fold vs MT ND (headed ddCT)” value (listed as MT) was 4.417 and the “ORF19 fold vs MT ND (headed ddCT)” value (listed as MT) was 8.897. The “ORF 20 fold vs MT ND (headed ddCT)” value (listed as MT) was 5.481, the “ORF22.1 fold vs MT ND (headed ddCT)” value (listed as MT) was 6.976 and the “ORF23 fold vs MT ND (headed ddCT)” value (listed as MT) was 4.718. The “ORF24 fold vs MT ND (headed ddCT)” value (listed as MT) was 6.384, the “ORF 25 fold vs MT ND (headed ddCT)” value (listed as MT) was 4.629 and the “ORF26 fold vs MT ND (headed ddCT)” value (listed as MT) was 6.591. The “ORF27 fold vs MT ND (headed ddCT)” value (listed as MT) was 19.313 and 19.3133, the “ORF28 fold vs MT ND (headed ddCT)” value (listed as MT) was 5.046 and the “ORF29 fold vs MT ND (headed ddCT)” value (listed as MT) was 22.418 and 22.4181. For the same compound, the “ORF30 fold vs MT ND (headed ddCT)” value (listed as MT) was 5.617, the “ORF31 fold vs MT ND (headed ddCT)” value (listed as MT) was 9.188 and the “ORF32 fold vs MT ND (headed ddCT)” value (listed as MT) was 3.227. The “ORF33 fold vs MT ND (headed ddCT)” value (listed as MT) was 10.461 and 10.4609, the “ORF34 fold vs MT ND (headed ddCT)” value (listed as MT) was 6.891 and the “ORF35 fold vs MT ND (headed ddCT)” value (listed as MT) was 7.441. The “ORF36 fold vs MT ND (headed ddCT)” value (listed as MT) was 21.557 and 21.5571, the “ORF37 fold vs MT ND (headed ddCT)” value (listed as MT) was 14.520 and 14.5196 and the “ORF38 fold vs MT ND (headed ddCT)” value (listed as MT) was 28.906 and 28.9062. The “ORF39 fold vs MT ND (headed ddCT)” value (listed as MT) was 11.635 and 11.6345, the “ORF40 fold vs MT ND (headed ddCT)” value (listed as MT) was 4.674 and the “ORF41 fold vs MT ND (headed ddCT)” value (listed as MT) was 21.065 and 21.0654. For the same compound, the “ORF42 fold vs MT ND (headed ddCT)” value (listed as MT) was 3.993, the “ORF43 fold vs MT ND (headed ddCT)” value (listed as MT) was 8.726 and the “ORF44 fold vs MT ND (headed ddCT)” value (listed as MT) was 33.337 and 33.3373. The “ORF45 fold vs MT ND (headed ddCT)” value (listed as MT) was 53.618 and 53.6182, the “ORF 46 fold vs MT ND (headed ddCT)” value (listed as MT) was 6.457 and the “ORF 47 fold vs MT ND (headed ddCT)” value (listed as MT) was 62.278 and 62.2783. For the same compound, the “ORF48 fold vs MT ND (headed ddCT)” value (listed as MT) was 31.118 and 31.1177, the “ORF49 fold vs MT ND (headed ddCT)” value (listed as MT) was 16.390 and 16.3905 and the “ORF52 fold vs MT ND (headed ddCT)” value (listed as MT) was 27.531 and 27.5312. The “ORF53 fold vs MT ND (headed ddCT)” value (listed as MT) was 16.215 and 16.2146, the “ORF54 fold vs MT ND (headed ddCT)” value (listed as MT) was 10.079 and 10.0788 and the “ORF55 fold vs MT ND (headed ddCT)” value (listed as MT) was 10.827 and 10.8272. For the same compound, the “ORF56 fold vs MT ND (headed ddCT)” value (listed as MT) was 13.04, the “ORF57 fold vs MT ND (headed ddCT)” value (listed as MT) was 22.128 and 22.1283 and the “ORF70 fold vs MT ND (headed ddCT)” value (listed as MT) was 15.204 and 15.2038. The “T1.5 ori RNA fold vs MT ND (headed ddCT)” value (listed as MT) was 26.465 and 26.4646, the “k 1 fold vs MT ND (headed ddCT)” value (listed as MT) was 7.768 and the “k 3 fold vs MT ND (headed ddCT)” value (listed as MT) was 12.567 and 12.5669. The “k 4 fold vs MT ND (headed ddCT)” value (listed as MT) was 33.463 and 33.4629, the “k 6 -2 fold vs MT ND (headed ddCT)” value (listed as MT) was 13.375 and 13.3749 and the “k 7 real fold vs MT ND (headed ddCT)” value (listed as MT) was 14.740 and 14.7397. For the same compound, the “pan set 2 fold vs MT ND (headed ddCT)” value (listed as MT) was 11.431 and 11.4312, the “EGFP ddCT (vs 18s and MT ND), second block” value [1] was 2.182 and the “IL- 6 ddCT (vs 18s and MT ND), second block” value [1] was 4.704. The “ORF67 ddCT (vs 18s and MT ND), second block” value [1] was 1.460, the “ORF68 ddCT (vs 18s and MT ND), second block” value [1] was 3.433 and the “ORF74 ddCT (vs 18s and MT ND), second block” value [1] was 1.662. For the same compound, the “k 14 ddCT (vs 18s and MT ND), second block” value [1] was 1.713, the “IL- 10 ddCT (vs 18s and MT ND), second block” value [2] was 0.863 and 0.8629 and the “K 11 ddCT (vs 18s and MT ND), second block” value [2] was 85.514 and 85.5135. For the same compound, the “K 12 ddCT (vs 18s and MT ND), second block” value [2] was 1.587, the “K 15 ddCT (vs 18s and MT ND), second block” value [2] was 1.316 and the “ORF 58 ddCT (vs 18s and MT ND), second block” value [2] was 7.125. The “ORF59 ddCT (vs 18s and MT ND), second block” value [2] was 3.052, the “ORF60 ddCT (vs 18s and MT ND), second block” value [2] was 1.439 and the “ORF61 ddCT (vs 18s and MT ND), second block” value [2] was 2.555. The “ORF 62 ddCT (vs 18s and MT ND), second block” value [2] was 2.303, the “ORF63 ddCT (vs 18s and MT ND), second block” value [2] was 4.399 and the “ORF64 ddCT (vs 18s and MT ND), second block” value [2] was 5.462 and 5.4617. The “ORF65 ddCT (vs 18s and MT ND), second block” value [2] was 2.091, the “ORF66 ddCT (vs 18s and MT ND), second block” value [2] was 6.232 and the “ORF69 ddCT (vs 18s and MT ND), second block” value [2] was 3.398. For the same compound, the “ORF71 ddCT (vs 18s and MT ND), second block” value [2] was 6.849, the “ORF72 ddCT (vs 18s and MT ND), second block” value [2] was 2.075 and the “ORF 73 ddCT (vs 18s and MT ND), second block” value [2] was 1.648. The “ORF75 ddCT (vs 18s and MT ND), second block” value [2] was 1.427, the “T0.7 #1 ddCT (vs 18s and MT ND), second block” value [2] was 5.275 and the “T0.7 #2 ddCT (vs 18s and MT ND), second block” value [2] was 2.071. For the same compound, the “T1.5 #2 ddCT (vs 18s and MT ND), second block” value [2] was 13.571 and 13.5709 and the “VIRF3 ddCT (vs 18s and MT ND), second block” value [2] was 5.775.

From publication PMC8639922, “KSHV transactivator-derived small peptide traps coactivators to attenuate MYC and inhibits leukemia and lymphoma cell growth” (Communications Biology, 2021)
